From PubChem BioAssay AID330 (DTP/NCI, 2004)
Where “and” joins values, the source holds several entries; their conditions need not be identical. Identical values can stand only once. Toxic doses and inconclusive results are not listed.

Tested on: P388 leukemia ip, CD2F1 mice, survival T/C
Assay: NCI In Vivo Anticancer Drug Screen. Data for tumor model P388 Leukemia (intraperitoneal) in CD2F1 (CDF1) mice
Settings: endpoint: median survival time, higher = longer survival
How it was run: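 Mice carrying the transplanted tumor received test compound or vehicle. Survival was recorded in each group, and the value is the treated-group measurement divided by that of the vehicle-treated control group.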

[1] = dose: 25.0 mg/kg/injection, schedule: Q01DX009 (ip), vehicle: saline
[2] = dose: 60.0 mg/kg/injection, schedule: Q01DX005 (ip), vehicle: Klucel (hydroxypropylcellulose) (HPC)
[3] = dose: 240.0 mg/kg/injection, schedule: Q01DX005 (ip), vehicle: Klucel (hydroxypropylcellulose) (HPC)
[4] = dose: 100.0 mg/kg/injection, schedule: Q01DX009 (ip), vehicle: saline with Tween-80
[5] = dose: 200.0 mg/kg/injection, schedule: Q01DX009 (ip), vehicle: saline with Tween-80
[6] = dose: 400.0 mg/kg/injection, schedule: Q01DX009 (ip), vehicle: saline with Tween-80
[7] = dose: 60.0 mg/kg/injection, schedule: Q01DX005 (ip), vehicle: saline with Tween-80
[8] = dose: 120.0 mg/kg/injection, schedule: Q01DX005 (ip), vehicle: saline with Tween-80
[9] = dose: 240.0 mg/kg/injection, schedule: Q01DX005 (ip), vehicle: saline with Tween-80
[10] = dose: 12.5 mg/kg/injection, schedule: Q01DX005 (ip), vehicle: saline with Tween-80
[11] = dose: 25.0 mg/kg/injection, schedule: Q01DX005 (ip), vehicle: saline with Tween-80
[12] = dose: 50.0 mg/kg/injection, schedule: Q01DX005 (ip), vehicle: saline with Tween-80
[13] = dose: 100.0 mg/kg/injection, schedule: Q01DX005 (ip), vehicle: saline with Tween-80
[14] = dose: 200.0 mg/kg/injection, schedule: Q01DX005 (ip), vehicle: saline with Tween-80
[15] = dose: 50.0 mg/kg/injection, schedule: Q01DX005 (ip), vehicle: saline
[16] = dose: 100.0 mg/kg/injection, schedule: Q01DX005 (ip), vehicle: saline

In the case of `COc1cc(N(CCCl)CCCl)ccc1NC(=O)c1ccccc1`, the T/C (dose: 6.25 mg/kg/injection, schedule: Q01DX009 (ip), vehicle: saline) was 150 % of control, the T/C (dose: 6.25 mg/kg/injection, schedule: Q04DX003 (ip), vehicle: saline with Tween-80) was 109 % of control and the T/C (dose: 12.5 mg/kg/injection, schedule: Q01DX009 (ip), vehicle: saline) was 168 % of control. The T/C (dose: 12.5 mg/kg/injection, schedule: Q04DX003 (ip), vehicle: saline with Tween-80) was 118 % of control, the T/C (dose: 16.5 mg/kg/injection, schedule: Q04DX003 (ip), vehicle: saline sonified) was 113 % of control and the T/C [1] was 100 % of control. For the same compound, the T/C (dose: 37.5 mg/kg/injection, schedule: Q04DX003 (ip), vehicle: saline sonified) was 181 % of control.

`[O-]c1nc(C(F)(F)F)nc(C(F)(F)F)c1-[n+]1ccccc1` was tested, and the T/C [2] was 108 % of control, the T/C (dose: 120.0 mg/kg/injection, schedule: Q01DX005 (ip), vehicle: Klucel (hydroxypropylcellulose) (HPC)) was 104 % of control and the T/C [3] was 96 % of control.

With `CCOc1cc(/C=N\Nc2nncn2N)c(C)cc1N(CCCl)CCCl` the T/C (dose: 50.0 mg/kg/injection, schedule: Q04DX003 (ip), vehicle: saline sonified) was 116 % of control.

In the case of `O=NN(CCSCCO)C(=O)NC1CCCCC1`, the T/C (dose: 6.25 mg/kg/injection, schedule: Q01DX009 (ip), vehicle: water) was 101 % of control, the T/C (dose: 12.5 mg/kg/injection, schedule: Q01DX009 (ip), vehicle: water) was 100 % of control and the T/C (dose: 25.0 mg/kg/injection, schedule: Q01DX009 (ip), vehicle: water) was 102 % of control. For the same compound, the T/C (dose: 50.0 mg/kg/injection, schedule: Q01DX009 (ip), vehicle: water) was 109 % of control, the T/C (dose: 100.0 mg/kg/injection, schedule: Q01DX009 (ip), vehicle: water) was 110 % of control and the T/C (dose: 200.0 mg/kg/injection, schedule: Q01DX009 (ip), vehicle: water) was 107 % of control.

With `c1ccc2c(c1)Cc1nc3ccccc3nc1-2` the T/C [4] was 100 % of control, the T/C [5] was 95 % of control and the T/C [6] was 100 % of control.

`N#Cc1ccc(OC(=O)Nc2c(Br)cc(Br)cc2Br)cc1` was tested, and the T/C [7] was 93 % of control, the T/C [8] was 99 % of control and the T/C [9] was 99 % of control.

With `COC1=CC(=O)C(C(c2ccc(OC)cc2)N2CCOCC2)=CC1=O` (configuration not stated) the T/C [10] was 109 % of control, the T/C [11] was 109 % of control and the T/C [12] was 101 % of control and 109 % of control.

`N#CC(C#N)=C1CCNc2ccccc21` was tested, and the T/C [4] was 95 % of control, the T/C [5] was 95 % of control and the T/C [6] was 95 % of control.

For `CC1=NOC(=O)/C1=C/c1ccc(Cl)cc1`, the T/C [7] was 99 % of control, the T/C [8] was 105 % of control and the T/C [9] was 104 % of control.

With `C=CC1CN2CCC1CC2C(=O)c1ccnc2ccc(OC)cc12` (configuration not stated) the T/C [12] was 100 % of control, the T/C [13] was 100 % of control and the T/C [14] was 100 % of control.

`c1ccc(CCc2cccc3ccccc23)nc1` was tested, and the T/C [12] was 98 % of control, the T/C [13] was 96 % of control and the T/C [14] was 100 % of control.

With `O=[N+]([O-])c1ccc(CSC(=S)Nc2ccc(Cl)c(Cl)c2)cc1` the T/C (dose: 25.0 mg/kg/injection, schedule: Q01DX009 (ip), vehicle: saline with Tween-80) was 106 % of control, the T/C [1] was 109 % of control and the T/C (dose: 50.0 mg/kg/injection, schedule: Q01DX009 (ip), vehicle: saline with Tween-80) was 114 % of control. For the same compound, the T/C (dose: 50.0 mg/kg/injection, schedule: Q01DX009 (ip), vehicle: saline) was 107 % of control, the T/C (dose: 50.0 mg/kg/injection, schedule: Q01DX009 (ip), vehicle: suspension in saline) was 103 % of control and the T/C [4] was 115 % of control. For the same compound, the T/C (dose: 100.0 mg/kg/injection, schedule: Q01DX009 (ip), vehicle: saline) was 109 % of control, the T/C (dose: 100.0 mg/kg/injection, schedule: Q01DX009 (ip), vehicle: suspension in saline) was 113 % of control and the T/C [5] was 97 % of control. The T/C (dose: 200.0 mg/kg/injection, schedule: Q01DX009 (ip), vehicle: saline) was 116 % of control and the T/C (dose: 200.0 mg/kg/injection, schedule: Q01DX009 (ip), vehicle: suspension in saline) was 115 % of control.

In the case of `O=C(c1ccccc1)C(NCc1ccccc1)(Nc1ccccn1)c1ccccc1` (configuration not stated), the T/C (dose: 15.0 mg/kg/injection, schedule: Q01DX005 (ip), vehicle: Klucel (hydroxypropylcellulose) (HPC)) was 102 % of control, the T/C (dose: 30.0 mg/kg/injection, schedule: Q01DX005 (ip), vehicle: Klucel (hydroxypropylcellulose) (HPC)) was 100 % of control and the T/C [2] was 100 % of control and 88 % of control. For the same compound, the T/C [3] was 89 % of control.

`CC(Cl)CN1CC(C)OC1=O` (configuration not stated) was tested, and the T/C (dose: 25.0 mg/kg/injection, schedule: Q01DX001 (ip), vehicle: saline) was 105 % of control, the T/C (dose: 50.0 mg/kg/injection, schedule: Q01DX001 (ip), vehicle: saline) was 102 % of control and the T/C (dose: 100.0 mg/kg/injection, schedule: Q01DX001 (ip), vehicle: saline) was 108 % of control. For the same compound, the T/C (dose: 200.0 mg/kg/injection, schedule: Q01DX001 (ip), vehicle: saline) was 108 % of control.

With `Cc1cc(=O)oc2c3c(c4c(c12)OC(C)(C)C=C4)OC(C)(C)C=C3` the T/C [7] was 89 % of control and the T/C [8] was 88 % of control.

In the case of `CCN(CC)CCN1C(=O)c2cccc(N)c2C1=O`, the T/C [15] was 103 % of control and the T/C [16] was 101 % of control.

In the case of `CCOc1c(Cl)cc(Cl)cc1C(c1ccccc1S(=O)(=O)O)c1cc(Cl)cc(Cl)c1OCC`, the T/C (dose: 6.25 mg/kg/injection, schedule: Q01DX009 (ip), vehicle: saline with Tween-80) was 100 % of control and the T/C (dose: 12.5 mg/kg/injection, schedule: Q01DX009 (ip), vehicle: saline with Tween-80) was 91 % of control.

With `CCN(CC)CCOCCc1ccccc1` the T/C [10] was 98 % of control, the T/C [11] was 98 % of control and the T/C [12] was 98 % of control and 100 % of control.

For `NC(N)=NS(=O)(=O)c1ccc(N=NC2C(=O)N(c3ccc(Cl)cc3)C(=S)N(c3ccc(Cl)cc3)C2=O)cc1`, the T/C (dose: 25.0 mg/kg/injection, schedule: Q01DX005 (ip), vehicle: saline) was 103 % of control, the T/C [15] was 106 % of control and 117 % of control and the T/C [16] was 104 % of control and 124 % of control. For the same compound, the T/C (dose: 200.0 mg/kg/injection, schedule: Q01DX005 (ip), vehicle: saline) was 108 % of control.

For `CCN(CC)C(=O)C(Cc1ccc(OC)c(OC)c1)C(Cc1ccc(OC)c(OC)c1)C(=O)O` (configuration not stated), the T/C (dose: 100.0 mg/kg/injection, schedule: Q04DX003 (ip), vehicle: other) was 95 % of control, the T/C (dose: 200.0 mg/kg/injection, schedule: Q04DX003 (ip), vehicle: other) was 95 % of control and the T/C (dose: 400.0 mg/kg/injection, schedule: Q04DX003 (ip), vehicle: other) was 95 % of control.

`CCN(CC)CCNc1cc2ccccc2c2sc3ccccc3c(=O)c12` was tested, and the T/C (dose: 25.0 mg/kg/injection, schedule: Q01DX005 (ip), vehicle: distilled water + Tween-80) was 102 % of control and the T/C (dose: 50.0 mg/kg/injection, schedule: Q01DX005 (ip), vehicle: distilled water + Tween-80) was 103 % of control.

With `O=C(Nc1nccs1)Nc1ccccc1C(F)(F)F` the T/C (dose: 25.0 mg/kg/injection, schedule: Q01DX009 (ip), vehicle: Klucel (hydroxypropylcellulose) (HPC)) was 115 % of control, the T/C (dose: 50.0 mg/kg/injection, schedule: Q01DX009 (ip), vehicle: Klucel (hydroxypropylcellulose) (HPC)) was 108 % of control and the T/C (dose: 100.0 mg/kg/injection, schedule: Q01DX009 (ip), vehicle: Klucel (hydroxypropylcellulose) (HPC)) was 106 % of control. The T/C [4] was 92 % of control, the T/C (dose: 200.0 mg/kg/injection, schedule: Q01DX009 (ip), vehicle: Klucel (hydroxypropylcellulose) (HPC)) was 111 % of control and the T/C [5] was 90 % of control. The T/C [6] was 88 % of control.

For `CCN(CC)CCNC(=O)c1nn(C)c(=O)[nH]c1=O`, the T/C (dose: 50.0 mg/kg/injection, schedule: Q01DX005 (ip), vehicle: Klucel (hydroxypropylcellulose) (HPC)) was 108 % of control, the T/C (dose: 100.0 mg/kg/injection, schedule: Q01DX005 (ip), vehicle: Klucel (hydroxypropylcellulose) (HPC)) was 119 % of control and the T/C (dose: 200.0 mg/kg/injection, schedule: Q01DX005 (ip), vehicle: Klucel (hydroxypropylcellulose) (HPC)) was 99 % of control.

`CC1OC(C)(C2CC2)OC1C` (configuration not stated) was tested, and the T/C (dose: 100.0 mg/kg/injection, schedule: Q04DX003 (ip), vehicle: Klucel (hydroxypropylcellulose) (HPC)) was 95 % of control and the T/C (dose: 200.0 mg/kg/injection, schedule: Q04DX003 (ip), vehicle: Klucel (hydroxypropylcellulose) (HPC)) was 100 % of control.
